Laboratory results as given in ChEMBL document CHEMBL1147376, “Isolation and structure elucidation of 34-sulfatobastadin 13, an inhibitor of the endothelin A receptor, from a marine sponge of the genus Ianthella” (J Nat Prod, 1993).
Values after ≈ are worked out from the molar mass of the structure shown. Active and inactive are the calls of the source. The rule behind the calls is not given here.

Assays:
[1] = test system: Bacillus subtilis; test: Antibacterial activity against Bacillus subtilis ATCC 6633 after 18 to 24 hrs by twofold dilution test; format: functional
[2] = target: T1, Endothelin receptor type B (Rattus norvegicus) (UniProt P21451); test: Displacement of [125]ET3 from ETB receptor in Sprague-Dawley rat cerebellum at 70 uM
T1 sequence (whole entry): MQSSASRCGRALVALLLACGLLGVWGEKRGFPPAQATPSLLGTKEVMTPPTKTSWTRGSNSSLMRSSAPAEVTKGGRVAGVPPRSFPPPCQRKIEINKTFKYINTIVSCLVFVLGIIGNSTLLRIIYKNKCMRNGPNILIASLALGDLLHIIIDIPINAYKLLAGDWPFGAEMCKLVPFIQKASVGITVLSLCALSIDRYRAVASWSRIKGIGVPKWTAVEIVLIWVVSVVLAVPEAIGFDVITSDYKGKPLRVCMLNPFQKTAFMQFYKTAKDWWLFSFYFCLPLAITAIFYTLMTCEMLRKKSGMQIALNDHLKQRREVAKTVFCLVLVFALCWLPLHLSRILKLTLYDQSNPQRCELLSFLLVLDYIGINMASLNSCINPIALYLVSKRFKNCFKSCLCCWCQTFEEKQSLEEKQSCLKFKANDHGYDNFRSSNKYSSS

[3] = target: T2, Endothelin-1 receptor (Sus scrofa) (UniProt Q29010); test: Displacement of [125]ET1 from ETA receptor in pig thoracic aorta at 70 uM; format: tissue-based
T2 sequence (whole entry): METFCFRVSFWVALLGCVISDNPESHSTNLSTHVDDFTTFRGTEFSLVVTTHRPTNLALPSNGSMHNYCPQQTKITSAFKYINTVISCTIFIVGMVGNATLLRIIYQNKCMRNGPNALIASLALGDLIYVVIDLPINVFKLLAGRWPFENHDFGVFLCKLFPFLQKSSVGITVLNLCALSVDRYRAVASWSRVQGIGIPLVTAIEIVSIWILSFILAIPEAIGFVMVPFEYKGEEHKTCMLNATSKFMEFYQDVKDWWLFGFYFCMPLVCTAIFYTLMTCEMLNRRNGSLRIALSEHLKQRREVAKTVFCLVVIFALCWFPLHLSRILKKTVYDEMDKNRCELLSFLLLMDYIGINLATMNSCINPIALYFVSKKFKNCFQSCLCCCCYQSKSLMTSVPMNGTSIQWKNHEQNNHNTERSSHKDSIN

[4] = target: T3, Endothelin-1 receptor (Sus scrofa, UniProt Q29010); test: Displacement of [125]ET1 from ETA receptor in pig thoracic aorta
T3 sequence (Q29010 whole entry): T2 sequence (whole entry)

[5] = test system: Bacillus subtilis; test: Antibacterial activity against Bacillus subtilis ATCC 6633 at 50 ug/mL after 18 to 24 hrs by twofold dilution test; format: functional, organism-based

| SMILES | MIC [1] [µg/mL] | inhibition [2] [%] | inhibition [3] [%] | IC50 [4] [µM] | Activity [5] |
| --- | --- | --- | --- | --- | --- |
| O=C1NCCc2ccc(c(Br)c2)Oc2cc(ccc2O)CCNC(=O)/C(=N/O)Cc2cc(Br)c(O)c(c2)Oc2c(Br)cc(cc2Br)C/C1=N\O [BASTADIN 13] | 6 (≈ 6.38 µM) | 30 | 32 |  |  |
| O=C1NCCc2ccc(c(Br)c2)Oc2cc(ccc2O)CCNC(=O)/C(=N/O)Cc2cc(Br)c(OS(=O)(=O)O)c(c2)Oc2c(Br)cc(cc2Br)C/C1=N\O |  | 27 |  | 39 | inactive |
